One compound from patent US20080199527A1, “Enteric Coated Azithromycin Multiparticulates” (Pfizer Inc., priority 2004, published 2008) can be followed below.

Structures are written as SMILES.

The nature of this data set: Reactivity of enteric coating materials with azithromycin: ester formation in 50/50 mixtures, LC/MS. The format is physicochemical. The note with it: 50/50 (w/w) mixture of azithromycin and material, 50° C. and 20% RH. On the procedure: The reactivity of the materials useful for forming enteric coatings listed in Table 1 with azithromycin was determined as follows. […] (CAT), and triacetin, were prepared by adding equal weights of azithromycin and the material to a mortar and mixing with a spatula. […] Azithromycin esters were identified in each of the mixtures by LC/MS detection. […] The sample solutions were then filtered with a 0.45 μm nylon syringe filter. The sample solutions were then analyzed by HPLC using a Hypersil BDS C18 4.6 mm×250 mm (5 μm) HPLC column on a Hewlett Packard HP1100 liquid chromatograph. The mobile phase employed for sample elution was a gradient of isopropyl alcohol and 25 mM ammonium acetate buffer (pH approximately 7) as follows: initial conditions of 50/50 (v/v) isopropyl alcohol/ammonium acetate; the isopropyl alcohol percentage was then increased to 100% over 30 minutes and held at 100% for an additional 15 minutes. The flow rate was 0.80 mL/min. The method used a 75 μL injection volume and a 43° C. column temperature. A Finnigan LCQ Classic mass spectrometer was used for detection. […] Azithromycin ester values were calculated from the MS peak areas based on an external azithromycin standard. […] The results of this analysis are shown below as are the measured rates of ester formation (Re) at 50° C.

On to `CC(=O)OCC(COC(C)=O)OC(C)=O` [Triacetin, triacetin], for which the “Re at 50° C. (rate of ester formation)” value was 6.5 × 10^−2 wt %/day. Also, where the note is “storage time 10 days”, the “Concentration of Azithromycin Esters” value is recorded as 0.65 wt %.
